# From US9416111B2, “Substituted diazine and triazine spleen tyrosine kinease (Syk) inhibitors” (Merck Sharp & Dohme Corp., priority 2012, dated 2016)
# pIC50: −log10 of the molar value.
# Target: T1, recombinant human GST-SYK (Homo sapiens, UniProt P43405)
# T1 construct: purchased Carna Biosciences 08-176
# Experiment: Homogeneous Time-Resolved Fluorescence (HTRF) assay for the recombinant human Syk enzyme
# Format: biochemical
# Conditions: GST-hSYK 5 pM, ATP 25 μM, IC50 rated in classes, read-out: rhSYK Activity
# Description: Homogeneous Time-Resolved Fluorescence (HTRF) Assay for the Recombinant Human Syk Enzyme
# A recombinant GST-hSYK fusion protein was used to measure potency of compounds to inhibit human Syk activity. The recombinant human GST-SYK (Carna Biosciences #08-176) (5 pM final concentration) was incubated with various concentrations of the inhibitor diluted in DMSO (0.1% final concentration) for 10 minutes at room temperature in 15 mM Tris-HCl (pH 7.5), 0.01% tween 20, 2 mM DTT in 384 well plate format. To initiate the reaction the biotinylated substrate peptide (250 nM final concentration) that contains the phosphorylation site for Syk was added with magnesium (5 mM final concentration) and ATP (25 μM final concentration). Final volume of the reaction was 10 μL. Phosphorylation of the peptide was allowed to proceed for 45′ at room temperature. To quench the reaction and detect the phosphorylated product, 2 nM of a Europium-anti-phosphotyrosine antibody (Perkin Elmer #AD0161) and 70 nM SA-APC (Perkin-Elmer #CR130-100) were added together in 15 mM Tris pH 7.5, 40 mM EDTA, 0.01% tween 20. Final volume of the quenching solution was 10 μL. The resulting HTRF signal was measured after 30 minutes on an EnVision (Perkin-Elmer) reader using a time-resolved fluorescence protocol.
row,Structure (SMILES),pIC50
1,"Cc1cc(Nc2nccc(C(F)(F)F)n2)cc(-c2cnc(N3CCCC[C@H]3C(=O)O)nc2)c1 [Example 2.56, (2S)-1-[5-(3-methyl-5-{[4-(trifluoromethyl)pyrimidin-2-yl]amino}phenyl)pyrimidin-2-yl]piperidine-2-carboxylic acid]",> 7.00
2,"Cc1cc(Nc2nccc(C(F)(F)F)n2)cc(-c2ccc(OC(C)(C)C(=O)O)nn2)c1 [Example 3.34, 2-methyl-2-{[6-(3-methyl-5-{[4-(trifluoromethyl)pyrimidin-2-yl]amino}phenyl)pyridazin-3-yl]oxy}propanoic acid]",> 7.00
3,"Cc1cc(Nc2nccc(C3CC3)n2)cc(-c2cnc(CCC(=O)O)nc2)c1 [Example 3.57, 3-(5-{3-[(4-cyclopropylpyrimidin-2-yl)amino]-5-methylphenyl}pyrimidin-2-yl)propanoic acid]",> 7.00
4,"Cc1cc(Nc2nccc(C(F)(F)F)n2)cc(-c2cnc(N3CCC(=O)N(C)CC3)nc2)c1 [Example 2.24, 4-methyl-1-[5-(3-methyl-5-{[4-(trifluoromethyl)pyrimidin-2-yl]amino}phenyl)pyrimidin-2-yl]-1,4-diazepan-5-one]",> 7.00
5,"Cc1cc(Nc2nccc(C)n2)cc(-c2cnc(CCC(=O)O)cn2)c1 [Example 3.10, 3-(5-{3-methyl-5-[(4-methylpyrimidin-2-yl)amino]phenyl}pyrazin-2-yl)propanoic acid]",6.00 to 7.00
6,"Cc1cc(Nc2nccc(C(F)(F)F)n2)cc(-c2cnc(NCCO)nc2)c1 [Example 2.62, 2-{[5-(3-methyl-5-{[4-(trifluoromethyl)pyrimidin-2-yl]amino}phenyl)pyrimidin-2-yl]amino}ethanol]",> 7.00
7,"Cc1cc(Nc2nccc(C(F)(F)F)n2)cc(-c2cnc(NC3CCNC3=O)nc2)c1 (stereo not drawn) [Example 2.7, 3-{[5-(3-methyl-5-{[4-(trifluoromethyl)pyrimidin-2-yl]amino}phenyl)pyrimidin-2-yl]amino}pyrrolidin-2-one]",> 7.00
8,"Cc1cc(Nc2nccc(C(F)(F)F)n2)cc(-c2cnc(OC3CCC(C(=O)O)CC3)nc2)c1 (stereo not drawn) [Example 3.59, 4-{[5-(3-methyl-5-{[4-(trifluoromethyl)pyrimidin-2-yl]amino}phenyl)pyrimidin-2-yl]oxy}cyclohexanecarboxylic acid]",> 7.00
9,"Cc1cc(Nc2nccc(C(F)(F)F)n2)cc(-c2cnc(NC(C)(CO)CO)nc2)c1 [Example 2.1, 2-methyl-2-{[5-(3-methyl-5-{[4-(trifluoromethyl)pyrimidin-2-yl]amino}phenyl)pyrimidin-2-yl]amino}propane-1,3-diol]",> 7.00
10,"Cc1cc(Nc2nccc(C(F)(F)F)n2)cc(-c2ccc(CCC(=O)O)nn2)c1 [Example 3.39, 3-[6-(3-methyl-5-{[4-(trifluoromethyl)pyrimidin-2-yl]amino}phenyl)pyridazin-3-yl]propanoic acid]",> 7.00
11,"Cc1cc(Nc2nccc(C(F)(F)F)n2)cc(-c2cnc(NC3(C(=O)O)CCCC3)nc2)c1 [Example 2.76, 1-{[5-(3-methyl-5-{[4-(trifluoromethyl)pyrimidin-2-yl]amino}phenyl)pyrimidin-2-yl]amino}cyclopentanecarboxylic acid]",> 7.00
12,"Cc1cc(Nc2nccc(C(F)(F)F)n2)cc(-c2ccncn2)c1 [Example 3.48, N-(3-methyl-5-pyrimidin-4-ylphenyl)-4-(trifluoromethyl)pyrimidin-2-amine]",6.00 to 7.00
13,"COCCNc1ncc(-c2cc(C)cc(Nc3nccc(C(F)(F)F)n3)c2)cn1 [Example 1.4, N-(3-{2-[(2-methoxyethyl)amino]pyrimidin-5-yl}-5-methylphenyl)-4-(trifluoromethyl)pyrimidin-2-amine]",> 7.00
14,"Cc1cc(Nc2nccc(C(F)(F)F)n2)cc(-c2cnc(NC3CCOC3)nc2)c1 (stereo not drawn) [Example 2.18, N-{3-methyl-5-[2-(tetrahydrofuran-3-ylamino)pyrimidin-5-yl]phenyl}-4-(trifluoromethyl)pyrimidin-2-amine]",> 7.00
15,"Cc1cc(Nc2nccc(C(F)(F)F)n2)cc(-c2cnc(NCC(N)=O)nc2)c1 [Example 2.37, N~2~-[5-(3-methyl-5-{[4-(trifluoromethyl)pyrimidin-2-yl]amino}phenyl)pyrimidin-2-yl]glycinamide]",> 7.00
16,"Cc1cc(Nc2nccc(C(F)(F)F)n2)cc(-c2cnc(NC(CO)C(=O)O)nc2)c1 (racemic) [Example 2.41, N-[5-(3-methyl-5-{[4-(trifluoromethyl)pyrimidin-2-yl]amino}phenyl)pyrimidin-2-yl]serine]",> 7.00
17,"CCOC(=O)CCc1cnc(-c2cc(C)cc(Nc3nccc(C(F)(F)F)n3)c2)cn1 [Example 3.7, ethyl 3-[5-(3-methyl-5-{[4-(trifluoromethyl)pyrimidin-2-yl]amino}phenyl)pyrazin-2-yl]propanoate]",6.00 to 7.00

row,Structure (SMILES),pIC50
1,"Cc1cc(Nc2nccc(C(F)(F)F)n2)cc(-c2cnc(N3CCN(C)C(=O)C3C)nc2)c1 (stereo not drawn) [Example 2.67, 1,3-dimethyl-4-[5-(3-methyl-5-{[4-(trifluoromethyl)pyrimidin-2-yl]amino}phenyl)pyrimidin-2-yl]piperazin-2-one]",> 7.00
2,"COc1ccnc(Nc2cc(C)cc(-c3cnc(CCC(=O)O)nc3)c2)n1 [Example 1.5, 3-(5-{3-[(4-methoxypyrimidin-2-yl)amino]-5-methylphenyl}pyrimidin-2-yl)propanoic acid]",> 7.00
3,"CCOC(=O)CCc1ccc(-c2cc(C)cc(Nc3nccc(C(F)(F)F)n3)c2)nn1 [Example 3.27, ethyl 3-[6-(3-methyl-5-{[4-(trifluoromethyl)pyrimidin-2-yl]amino}phenyl)pyridazin-3-yl]propanoate]",6.00 to 7.00
4,"Cc1cc(Nc2nccc(C(F)(F)F)n2)cc(-c2ccc(N3CCC(C(=O)O)CC3)nn2)c1 [Example 3.37, 1-[6-(3-methyl-5-{[4-(trifluoromethyl)pyrimidin-2-yl]amino}phenyl)pyridazin-3-yl]piperidine-4-carboxylic acid]",> 7.00
5,"CCC1C(=O)NCCN1c1ncc(-c2cc(C)cc(Nc3nccc(C(F)(F)F)n3)c2)cn1 (stereo not drawn) [Example 2.51, 3-ethyl-4-[5-(3-methyl-5-{[4-(trifluoromethyl)pyrimidin-2-yl]amino}phenyl)pyrimidin-2-yl]piperazin-2-one]",> 7.00
6,"Cc1cc(Nc2nccc(C(F)(F)F)n2)cc(-c2cnc(NC3(C(N)=O)CC3)nc2)c1 [Example 4.1, 1-{[5-(3-methyl-5-{[4-(trifluoromethyl)pyrimidin-2-yl]amino}phenyl)pyrimidin-2-yl]amino}cyclopropanecarboxamide]",> 7.00
7,"Cc1cc(Nc2nccc(C(F)(F)F)n2)cc(-c2cnc(N3CCC3C(=O)O)nc2)c1 (stereo not drawn) [Example 2.54, 1-[5-(3-methyl-5-{[4-(trifluoromethyl)pyrimidin-2-yl]amino}phenyl)pyrimidin-2-yl]azetidine-2-carboxylic acid]",> 7.00
8,"Cc1cc(Nc2nccc(C(F)F)n2)cc(-c2cnc([C@@H](C)[C@H]3CC[C@H](C(=O)O)CC3)nc2)c1 (single isomer, unassigned) [Example 6.1, trans-4-{1-[5-(3-{[4-(difluoromethyl)pyrimidin-2-yl]amino}-5-methylphenyl)pyrimidin-2-yl]ethyl}cyclohexanecarboxylic acid]",> 7.00
9,"Cc1cc(Nc2nccc(C(F)(F)F)n2)cc(-c2cnc(CCC(=O)O)cn2)c1 [Example 3.8, 3-[5-(3-methyl-5-{[4-(trifluoromethyl)pyrimidin-2-yl]amino}phenyl)pyrazin-2-yl]propanoic acid]",> 7.00
10,"Cc1cc(Nc2nccc(C(F)(F)F)n2)cc(-c2ccc(C(C)(C)O)nn2)c1 [Example 3.36, 2-[6-(3-methyl-5-{[4-(trifluoromethyl)pyrimidin-2-yl]amino}phenyl)pyridazin-3-yl]propan-2-ol]",6.00 to 7.00
11,"CCOC(=O)CCc1cncc(-c2cc(C)cc(Nc3nccc(C4CC4)n3)c2)n1 [Example 3.21, ethyl 3-(6-{3-[(4-cyclopropylpyrimidin-2-yl)amino]-5-methylphenyl}pyrazin-2-yl)propanoate]",6.00 to 7.00
12,"O=C(O)CCc1ccc(-c2cccc(Nc3nccc(C(F)(F)F)n3)c2)nn1 [Example 3.25, 3-[6-(3-{[4-(trifluoromethyl)pyrimidin-2-yl]amino}phenyl)pyridazin-3-yl]propanoic acid]",6.00 to 7.00
13,"Cc1cc(Nc2nccc(C(F)(F)F)n2)cc(-c2cc(CCC(=O)O)ncn2)c1 [Example 3.50, 3-[6-(3-methyl-5-{[4-(trifluoromethyl)pyrimidin-2-yl]amino}phenyl)pyrimidin-4-yl]propanoic acid]",6.00 to 7.00
14,"CCOC(=O)CCc1cncc(-c2cc(C)cc(Nc3nccc(C)n3)c2)n1 [Example 3.19, ethyl 3-(6-{3-methyl-5-[(4-methylpyrimidin-2-yl)amino]phenyl}pyrazin-2-yl)propanoate]",6.00 to 7.00
15,"Cc1cc(Nc2nccc(C(F)(F)F)n2)cc(-c2cnc(NCc3cnn(C)c3)nc2)c1 [Example 2.17, N-[3-methyl-5-(2-{[(1-methyl-1H-pyrazol-4-yl)methyl]amino}pyrimidin-5-yl)phenyl]-4-(trifluoromethyl)pyrimidin-2-amine]",> 7.00
16,Cc1cc(Nc2nccc(C(F)(F)F)n2)cc(-c2cnc(NCC(O)CC(=O)O)nc2)c1 (stereo not drawn) [Example 2.61],> 7.00

# Same assay, conditions: GST-hSYK 5 pM, ATP 25 μM, values in text, read-out: IC50
row,Structure (SMILES),pIC50
1,"Cc1cc(Nc2nccc(C(F)(F)F)n2)cc(-c2cnc(NC(C)(CO)CO)nc2)c1 [Example 2.1, 2-methyl-2-{[5-(3-methyl-5-{[4-(trifluoromethyl)pyrimidin-2-yl]amino}phenyl)pyrimidin-2-yl]amino}propane-1,3-diol]",7.76
2,"Cc1cc(Nc2nccc(C(F)(F)F)n2)cc(-c2cnc(NC3(C(N)=O)CC3)nc2)c1 [Example 4.1, 1-{[5-(3-methyl-5-{[4-(trifluoromethyl)pyrimidin-2-yl]amino}phenyl)pyrimidin-2-yl]amino}cyclopropanecarboxamide]",7.67
3,"Cc1cc(Nc2nccc(C(F)F)n2)cc(-c2cnc([C@@H](C)[C@H]3CC[C@H](C(=O)O)CC3)nc2)c1 (single isomer, unassigned) [Example 6.1, trans-4-{1-[5-(3-{[4-(difluoromethyl)pyrimidin-2-yl]amino}-5-methylphenyl)pyrimidin-2-yl]ethyl}cyclohexanecarboxylic acid]",9.22
